From ChEMBL document CHEMBL4610097, “Daphnane Diterpenoids from Daphne genkwa Inhibit PI3K/Akt/mTOR Signaling and Induce Cell Cycle Arrest and Apoptosis in Human Colon Cancer Cells” (J Nat Prod, 2020)
Activity calls are given as the source filed them. The rule behind the calls is not given here.

Assays:
SW-620 [1] = assay: Induction of cell cycle arrest in human SW620 cells assessed as accumulation at S phase at 1.48 uM after 24 hrs by propidium iodide staining-based flow cytometric analysis (reference value: 23.83%); assay type: functional
SW-620 [2] = assay: Induction of apoptosis in human SW620 cells assessed as early apoptotic cells at 2.96 uM after 24 hrs by annexin V/propidium iodide staining-based flow cytometric analysis (reference value: 0.36%); assay type: functional
SW-620 [3] = assay: Induction of apoptosis in human SW620 cells assessed as necrotic cells at 1.48 uM after 24 hrs by annexin V/propidium iodide staining-based flow cytometric analysis (reference value: 0.30%); assay type: functional
SW-620 [4] = assay: Induction of cell cycle arrest in human SW620 cells assessed as accumulation at G0/G1 phase at 11.84 uM after 24 hrs by propidium iodide staining-based flow cytometric analysis (reference value: 56.11%); assay type: functional
SW-620 [5] = assay: Induction of morphological changes in human SW620 cells assessed as nuclear condensation at […] to 1.48 uM after 24 hrs by acridine orange/propidium iodide staining based microscopic analysis; assay type: functional, cell-based
SW-620 [6] = assay: Induction of apoptosis in human SW620 cells assessed as increase in cleaved PARP at 0.74 to 11.84 uM after 24 hrs by Western blot analysis; assay type: functional, cell-based
SW-620 [7] = assay: Induction of cell cycle arrest in human SW620 cells assessed as accumulation at G0/G1 phase at 5.92 uM after 24 hrs by propidium iodide staining-based flow cytometric analysis (reference value: 56.11%); assay type: functional
SW-620 [8] = assay: Induction of cell cycle arrest in human SW620 cells assessed as accumulation at G2/M phase at 2.96 uM after 24 hrs by propidium iodide staining-based flow cytometric analysis (reference value: 20.06%); assay type: functional
SW-620 [9] = assay: Induction of apoptosis in human SW620 cells assessed as viable cells at 11.84 uM after 24 hrs by annexin V/propidium iodide staining-based flow cytometric analysis (reference value: 96.9%); assay type: functional; settings: SW-620, 24 h, read-out: Activity
SW-620 [10] = assay: Induction of apoptosis in human SW620 cells assessed as necrotic cells at 2.96 uM after 24 hrs by annexin V/propidium iodide staining-based flow cytometric analysis (reference value: 0.30%); assay type: functional
SW-620 [11] = assay: Induction of apoptosis in human SW620 cells assessed as late apoptotic cells at 1.48 uM after 24 hrs by annexin V/propidium iodide staining-based flow cytometric analysis (reference value: 2.40%); assay type: functional
SW-620 [12] = assay: Induction of cell cycle arrest in human SW620 cells assessed as accumulation at G0/G1 phase at 2.96 uM after 24 hrs by propidium iodide staining-based flow cytometric analysis (reference value: 56.11%); assay type: functional
SW-620 [13] = assay: Cytotoxicity against human SW620 cells after 24 hrs by MTT assay; assay type: functional, cell-based; settings: SW-620, 24 h
SW-620 [14] = assay: Induction of apoptosis in human SW620 cells assessed as necrotic cells at 5.92 uM after 24 hrs by annexin V/propidium iodide staining-based flow cytometric analysis (reference value: 0.30%); assay type: functional
SW-620 [15] = assay: Induction of cell cycle arrest in human SW620 cells assessed as accumulation at G0/G1 phase at 0.74 uM after 24 hrs by propidium iodide staining-based flow cytometric analysis (reference value: 56.11%); assay type: functional
SW-620 [16] = assay: Induction of cell cycle arrest in human SW620 cells assessed as accumulation at G2/M phase at 5.92 uM after 24 hrs by propidium iodide staining-based flow cytometric analysis (reference value: 20.06%); assay type: functional
SW-620 [17] = assay: Induction of apoptosis in human SW620 cells assessed as viable cells at 1.48 uM after 24 hrs by annexin V/propidium iodide staining-based flow cytometric analysis (reference value: 96.9%); assay type: functional; settings: SW-620, 24 h, read-out: Activity
[18] = Inhibition of PI3K/Akt/mTOR signalling pathway in human SW620 cells assessed as reduction in Akt phosphorylation at 0.74 to 11.84 uM after 24 hrs by Western blot analysis; assay type: cell-based; settings: SW-620
SW-620 [19] = assay: Induction of cell cycle arrest in human SW620 cells assessed as accumulation at G2/M phase at 0.74 uM after 24 hrs by propidium iodide staining-based flow cytometric analysis (reference value: 20.06%); assay type: functional
SW-620 [20] = assay: Induction of apoptosis in human SW620 cells assessed as early apoptotic cells at 5.92 uM after 24 hrs by annexin V/propidium iodide staining-based flow cytometric analysis (reference value: 0.36%); assay type: functional
SW-620 [21] = assay: Induction of apoptosis in human SW620 cells assessed as early apoptotic cells at 11.84 uM after 24 hrs by annexin V/propidium iodide staining-based flow cytometric analysis (reference value: 0.36%); assay type: functional
SW-620 [22] = assay: Induction of morphological changes in human SW620 cells assessed as appearance of apoptotic bodies at 2.96 to 5.92 uM after 24 hrs by acridine orange/propidium iodide staining based microscopic analysis; assay type: functional, cell-based
SW-620 [23] = assay: Induction of apoptosis in human SW620 cells assessed as late apoptotic cells at 5.92 uM after 24 hrs by annexin V/propidium iodide staining-based flow cytometric analysis (reference value: 2.40%); assay type: functional
SW-620 [24] = assay: Induction of apoptosis in human SW620 cells assessed as early apoptotic cells at 1.48 uM after 24 hrs by annexin V/propidium iodide staining-based flow cytometric analysis (reference value: 0.36%); assay type: functional
SW-620 [25] = assay: Induction of apoptosis in human SW620 cells assessed as late apoptotic cells at 2.96 uM after 24 hrs by annexin V/propidium iodide staining-based flow cytometric analysis (reference value: 2.40%); assay type: functional
SW-620 [26] = assay: Induction of cell cycle arrest in human SW620 cells assessed as accumulation at S phase at 2.96 uM after 24 hrs by propidium iodide staining-based flow cytometric analysis (reference value: 23.83%); assay type: functional
SW-620 [27] = assay: Induction of apoptosis in human SW620 cells assessed as increase in Bax/Bcl2 ratio at 0.74 to 11.84 uM after 24 hrs by Western blot analysis; assay type: functional, cell-based
SW-620 [28] = assay: Induction of apoptosis in human SW620 cells assessed as viable cells at 2.96 uM after 24 hrs by annexin V/propidium iodide staining-based flow cytometric analysis (reference value: 96.9%); assay type: functional; settings: SW-620, 24 h, read-out: Activity
[29] = Inhibition of PI3K/Akt/mTOR signalling pathway in human SW620 cells assessed as reduction in mTOR phosphorylation at 0.74 to 11.84 uM after 24 hrs by Western blot analysis; assay type: cell-based; settings: SW-620
SW-620 [30] = assay: Induction of apoptosis in human SW620 cells assessed as viable cells at 5.92 uM after 24 hrs by annexin V/propidium iodide staining-based flow cytometric analysis (reference value: 96.9%); assay type: functional; settings: SW-620, 24 h, read-out: Activity
RKO = assay: Cytotoxicity against human RKO cells after 24 hrs by MTT assay; assay type: functional, cell-based
SW-620 [31] = assay: Induction of apoptosis in human SW620 cells assessed as early apoptotic cells at 0.74 uM after 24 hrs by annexin V/propidium iodide staining-based flow cytometric analysis (reference value: 0.36%); assay type: functional
SW-620 [32] = assay: Induction of apoptosis in human SW620 cells assessed as late apoptotic cells at 11.84 uM after 24 hrs by annexin V/propidium iodide staining-based flow cytometric analysis (reference value: 2.40%); assay type: functional
SW-620 [33] = assay: Induction of cell cycle arrest in human SW620 cells assessed as accumulation at G2/M phase at 11.84 uM after 24 hrs by propidium iodide staining-based flow cytometric analysis (reference value: 20.06%); assay type: functional

For `C=C(C)[C@@]12O[C@@]3(/C=C/C=C/CCCCC)O[C@@H]1[C@@H]1[C@H](O)[C@@](O)(CO)[C@@H](O)[C@]4(O)C(=O)C(C)=C[C@H]4[C@@]1(O3)[C@H](C)[C@H]2OC(=O)c1ccccc1`, the Activity (SW-620 [1]) was 14.19%, the Activity (SW-620 [2]) was 6.18% and the Activity (SW-620 [3]) was 0.43%. The Activity (SW-620 [4]) was 88.08%, the Activity (SW-620 [5]) was “Active” and the Activity (SW-620 [6]) was “Active”. It also gave an Activity (SW-620 [7]) of 84.75%, an Activity (SW-620 [8]) of 5.17% and a viability at 11.84 µM (SW-620 [9]) of 1.33%. The Activity (SW-620 [10]) was 0.33%, the Activity (SW-620 [11]) was 48.5% and the Activity (SW-620 [12]) was 82.07%. For the same compound, the IC50 (SW-620 [13]) was 3000 nM, the Activity (SW-620 [14]) was 0.25% and the Activity (SW-620 [15]) was 76.93%. The Activity (SW-620 [16]) was 3.52%, the viability at 1.48 µM (SW-620 [17]) was 45.4% and the inhibition [18] was “Active”. It also gave an Activity (SW-620 [19]) of 8.83%, an Activity (SW-620 [20]) of 4.67% and an Activity (SW-620 [21]) of 10.7%. The Activity (SW-620 [22]) was “Active”, the Activity (SW-620 [23]) was 58.5% and the Activity (SW-620 [24]) was 5.64%. For the same compound, the Activity (SW-620 [25]) was 49.4%, the Activity (SW-620 [26]) was 12.76% and the Activity (SW-620 [27]) was “Active”. The viability at 2.96 µM (SW-620 [28]) was 44.1%, the inhibition [29] was “Active” and the viability at 5.92 µM (SW-620 [30]) was 36.6%. It also gave an IC50 (RKO) of 6.5 µM, an Activity (SW-620 [31]) of 3.24% and an Activity (SW-620 [32]) of 86.3%. The Activity (SW-620 [33]) was 2.43%.
